Reference: publication PMC10630452, “The tumor-enriched small molecule gambogic amide suppresses glioma by targeting WDR1-dependent cytoskeleton remodeling” (Signal Transduction and Targeted Therapy, 2023)

Legend:
subcutaneous glioma PDX = test: Subcutaneous PDX model of glioma (GBM1); format: in vivo, nude mice
Procedure: (§1) Fig. 2 The BBB permeability and tumor suppressor ability of GA-amide compared with TMZ. GA-amide (a) or TMZ (b) concentration in the tumor area and normal brain tissue following a single injection of GA-amide (10 mg/kg, i.v.) or TMZ (10 mg/kg, i.v.). The data are presented as the means ± SEMs (n = 3). c Western blot analysis of the expression of TrkA in mouse tumor tissues (T) and normal brain tissues (N), n = 4. d Western blot analysis of glycosylated TrkA expression in human normal brain tissues (N) and glioma tissues of different grades. e Time curve of GA-amide and TMZ treatment in a cell viability assay (MTS) in T2-4, GSC2 and T12-1 cells. f–h A PDX mouse model was established, and the mice were treated with vehicle (control, n = 9), 2 mg/kg GA-amide (n = 9), 2 mg/kg GAC (n = 9) or […] TMZ (n = 8) by i.p. injection daily for 10 days. A summary photograph is presented in (f), statistical results in (g) and the body weights of mice in (h); the mean ± SEMs are shown. n.s: P ≥ 0.05, *P < 0.05, **P < 0.01 and ***P < 0.001 compared with the control group by one-way ANOVA at each time point
Male nude mice aged 5–6 weeks were selected for establishment of the in vivo glioma mouse models. For the PDX models, the tumor sample will be soaked in HBSS solution on ice and transferred from the hospital to the laboratory. Patient-related information was shown in Supplementary Table 4). For the subcutaneous PDX models, the isometric fresh GBM tumor (GBM1) specimens were implanted s.c. into the flank of a nude mouse. Then, the mice were treated with GA-amide (2 mg/kg i.p.), gambogic acid (2 mg/kg i.p.), TMZ (65 mg/kg i.p., Selleck) or vehicle after the tumors grew to 100 mm^3. The mouse body weights were measured, and tumor volumes were calculated using the formula L × W^2/2. After treatment, the xenografts were harvested and photographed.

GSC2 and U87MG-SLC cells = test: Combination of GA-amide with Trk inhibitors, cell viability; format: cell-based; details: 48 hours
Procedure: Supplementary Fig. 5 TrkA was not the functional target for GA-amide to inhibit glioma. a Western blot analyses of the TrkA and p-TrkA expression in GSC2 and U87MG-SLC cells with GA-amide treatment for 4 hours. b Western blot analyses of the p-TrkA expression in GSC2 with GA-amide treatment for different times. c, d The combination effects of GA-amide with GW441756, a TrkA inhibitor, or with K252a, an inhibitor of Trk family in GSC2 (c) and U87MG-SLC (d) (48 hours, n = 3).

[1] = BBB permeability assay in U87MG-SLC intracranial xenograft mice; format: in vivo, mouse; details: 10 mg/kg i.v., U87MG-SLC intracranial xenograft mice
Procedure: as §1
Mice bearing U87MG-SLC cell intracranial xenografts were injected with GA-amide (i.v.), and tissues from the brain tumor area and normal brain tissues were collected at different times after injection. […] The diagnostic product ions for GA-amide were detected at m/z 628.3/572.2.

F-actin = F-actin staining and G-actin/F-actin assay in T2-4 cells; format: cell-based; details: 50 nM jas with 0.3 μM GA-amide
Procedure: F-actin isolation was performed according to the instructions of the G-actin/F-actin assay (Cytoskeleton, Inc.). Briefly, cells were lysed in LAS2 buffer (Cytoskeleton, Inc.). The lysates were centrifuged (5 min at 1000 rpm) to pellet undisrupted cells, and then 100 µl of the supernatant was ultracentrifuged at 37 °C (100,000 × g) for 1 h to separate F-actin from soluble G-actin. The F-actin pellet was solubilized by incubation in 100 μL of F-actin depolymerization buffer for 1 h. The soluble F-actin and G-actin fractions were subsequently analyzed by immunoblotting with a mouse monoclonal anti-actin antibody (Cytoskeleton, Inc.).
Representative images of three wells are shown, and the scale bar represents 500 μm. h The apoptosis assay was conducted on T2-4 cells treated with DMSO, GA-amide (0.3 μM), jas (50 nM), and jas (50 nM jas was pretreated for 12 hours) in combination with GA-amide (0.3 μM) for 4 hours. The data were presented as the mean ± SEM (n = 3) and analyzed using one-way ANOVA analysis. Statistical significance is denoted as *P <0.05, **P <0.01, and ***P <0.001.

[2] = 60 mg/kg i.p. daily for 10 days

**Q.** Which “tumor volume versus control” value (subcutaneous glioma PDX; 2 mg/kg i.p. daily for 10 days) does the source give for `CC(C)=CCC[C@]1(C)C=Cc2c(O)c3c(c(CC=C(C)C)c2O1)O[C@]12C(=C[C@@H]4C[C@H]1C(C)(C)O[C@@]2(C/C=C(/C)C(=O)O)C4=O)C3=O` [GAC, gambogic acid, reference compound] here?
**A.** significantly decreased compared with those in the control group

**Q.** With `Cn1cc(/C=C2\C(=O)Nc3cccnc32)c2ccccc21` [GW441756] as the compound, how does the “rescue of the inhibitory effect of GA-amide on GSCs” value (GSC2 and U87MG-SLC cells) read?
**A.** neither the TrkA inhibitor GW441756 nor the Trk family inhibitor K252a[28] restored the inhibitory effect of GA-amide on GSCs

**Q.** Which “rescue of the inhibitory effect of GA-amide on GSCs” value (GSC2 and U87MG-SLC cells) does the source give for `COC(=O)[C@@]1(O)C[C@H]2O[C@]1(C)n1c3ccccc3c3c4c(c5c6ccccc6n2c5c31)C(=O)NC4` [K252a] here?
**A.** neither the TrkA inhibitor GW441756 nor the Trk family inhibitor K252a[28] restored the inhibitory effect of GA-amide on GSCs

**Q.** Which “body weight of mice” value (subcutaneous glioma PDX; [2]) does the source give for `Cn1nnc2c(C(N)=O)ncn2c1=O` [TMZ, temozolomide, reference compound] here?
**A.** significantly decreased

**Q.** And the “tumor volume versus control” value (subcutaneous glioma PDX; [2])?
**A.** significantly decreased compared with those in the control group

**Q.** What about the “concentration in the tumor area versus the nontumor area” value [1] of the same compound?
**A.** no discernible difference in its distribution between these regions

**Q.** For `C/C1=C\[C@H](C)C[C@H](C)OC(=O)C[C@H](c2ccc(O)cc2)NC(=O)[C@@H](Cc2c(Br)[nH]c3ccccc23)N(C)C(=O)[C@H](C)NC(=O)[C@@H](C)C1` [jasplakinolide, reference compound], which “effect of F-actin stabilization on GA-amide induced F-actin depolymerization, invasion inhibition and apoptosis” value (F-actin) is on record?
**A.** significantly reversed
